Measured values reported in patent publication US20040234992A1, “Method of detection of conformational change in a nucleic acid duplex by treatment with oxidising or reactive agent as a result of exposure to environmental or chemical conditions” (priority 2001, published 2004).

Key:
[1] = test system: calf thymus DNA (Z-DNA); test: Permanganate oxidation of calf thymus Z-DNA (NaCl) incubated with intercalators; details: for Level of oxidation (induced by chemical) Net A420 nm: Z-DNA (NaCl), Expt minus Control, 2 min-1 h; for Level of oxidation (induced by chemical) Net A420 nm / ΔA420 nm (2 min-1 h) (Expt): 35° C.; for ΔA420 nm (2 min-1 h) (Expt): calf thymus DNA + NaCl + intercalator 6.3 nmol + KMnO4
Procedure: The intercalator (10 μl, […]) was incubated with the solution containing calf thymus DNA (5 μl, 8.27 μg) and NaCl (600 μl, 5M NaCl solution) in water (355 μl) at 40° C. for 1 h. The reaction mixture was treated with KMnO4 (30μ of 10 mM solution) and maintained at 35° C. for 60 min. The absorbance at 420 nm was obtained at 2 min and 60 min by Cary 300 spectrophotometer (Varian Inc.). The level of oxidation was based on the absorbance at A420 nm of the experiment and control (without DNA) experiments as described in the experimental section. Four intercalators (with published data on unwinding degree) were used in the experiment: doxorubicin (10°), daunomycin (12°), 9-aminoacridine (17°) and ethidium bromide (28°); and
Due to limited information about the degree of unwinding of intercalators, only four intercalators with different degree of unwinding were employed in the experiment: doxorubicin (10°), daunorubicin (12°), 9-aminoacridine (17°) and ethidium bromide (28°). The Z-DNA samples were mixed in equal amounts of intercalators and the reactions were carried out under identical conditions. Calf thymus DNA (5 μl, 8.27 μg) was incubated with NaCl (600 μl, SM NaCl solution), the DNA binding agent or intercalator (10 μl, 6.3 nmol) in distilled H2O (355 μl). 4 non-sequence specific intercalators were used in the model study: doxorubicin, daunorubicin, 9-aminoacridine and ethidium bromide. The reaction mixture was gently mixed on shaker at 40° C. for 1 h. After incubation time, KMnO4 (30 μl) was added to the reaction mixture and the resulting mixture was transferred to the quartz cuvette and the absorbance (420 nm) was obtained at 35° C. for 2- and 60-min time-points. The level of oxidation induced by intercalator is based on the net absorbance and calculated as follows:
Net A420 nm=[A420 nm of the Expt (60 min)−A420 nm of the Expt (2 min)]−[A420 nm of the Control (60 min)−A420 nm of the Control (2 min)]
Where Net A420 nm represents the level of oxidation of the DNA-chemical adduct.
The Expt=calf thymus DNA+NaCl+DNA binding agent+KMnO4
The Control=DNA binding agent+KMnO4.
The control experiment (without DNA binding agent) was treated under identical conditions as described above.

[2] = test system: duplex DNA; details: published data; cited from earlier work

SMILES | Level of oxidation (induced by chemical) Net A420 nm [1] [arbitrary unit] | ΔA420 nm (2 min-1 h) (Expt) [1] | degree of unwinding [2] [°] | rate of permanganate oxidation (kinetic data) ([1]; Z-DNA incubated with intercalator, ranking among the four intercalators)
Nc1c2ccccc2nc2ccccc12 [9-aminoacridine] | 0.0726 | 0.1327 | 17 | 
COc1cccc2c1C(=O)c1c(O)c3c(c(O)c1C2=O)C[C@@](O)(C(C)=O)C[C@@H]3O[C@H]1C[C@H](N)[C@H](O)[C@H](C)O1 [daunorubicin] | 0.0957 | 0.1670 | 12 | 
COc1cccc2c1C(=O)c1c(O)c3c(c(O)c1C2=O)C[C@@](O)(C(=O)CO)C[C@@H]3O[C@H]1C[C@H](N)[C@H](O)[C@H](C)O1 [doxorubicin] | 0.1029 | 0.1427 | 10 | fastest
